Source: US20230183303A1, “Therapeutic Potential of Peptides from the "Netrin-Like" Domain of the FRZB Protein” (Université de Lorraine, priority 2020, published 2023)

Experiments:
Wnt/β-catenin pathway [1] = test: Western blot of Wnt/β-catenin pathway activation in ATDC5 micromasses; type: cell-based, mouse; details: PEP16 at 100 and 300 ng/mL; day 1, 7, 14, 21; during chondrogenesis
Experimental: Mouse chondrogenic ATDC5 cells (cartilage-specific chondrogenic strain) were cultured until confluent in maintenance medium containing 1:1 Dulbecco's modified Eagle's medium (DMEM): Ham's F-12 mix (Gibco) supplemented with 1% antibiotic (AB, Penicillin-Streptomycin, Gibco), 5% fetal bovine serum (FBS) (Gibco) and enriched with […] human transferrin (Sigma) and 30 nM sodium selenite (Sigma). Cells were trypsinized, washed and resuspended at 2.10^7 cells/mL in a chondrogenic medium made of maintenance medium enriched by 1× of ITS premix (resulting in 10 μg/mL insulin, 10 μg/mL human transferrin and 30 nM sodium selenite) (Life technologies). One droplet of cell suspension (10 μL) was placed at the center of each well of a 24-well plate. Cells were allowed to adhere for 2 h at 37° C., followed by addition of 500 μL chondrogenic medium supplemented. […] After 14 days, induction of hypertrophic differentiation and mineralization was induced by the mineralization medium made of α-MEM medium (Gibco) containing 1% AB, 5% FBS, 5 μg/ml human transferrin, 1× of ITS premix, 50 μg/ml ascorbic acid-2-phosphate (AA) (Sigma) and 10 mM β-glycerophosphate (BGP) (Sigma). […] Micromasses were collected at time points 1, 7, 14 21 and 28 days. Each time point was processed in three technical replicates. The medium was changed every other day. […]

ATDC5 micromasses [2] = test: qRT-PCR relative expression of genes of interest in ATDC5 micromass culture (chondrogenesis); type: cell-based, mouse
Experimental: (§1) Mouse chondrogenic ATDC5 cells (cartilage-specific chondrogenic strain) were cultured until confluent in maintenance medium containing 1:1 Dulbecco's modified Eagle's medium (DMEM): Ham's F-12 mix (Gibco) supplemented with 1% antibiotic (AB, Penicillin-Streptomycin, Gibco), 5% fetal bovine serum (FBS) (Gibco) and enriched with […] human transferrin (Sigma) and 30 nM sodium selenite (Sigma). Cells were trypsinized, washed and resuspended at 2.10^7 cells/mL in a chondrogenic medium made of maintenance medium enriched by 1× of ITS premix (resulting in 10 μg/mL insulin, 10 μg/mL human transferrin and 30 nM sodium selenite) (Life technologies). One droplet of cell suspension (10 μL) was placed at the center of each well of a 24-well plate. Cells were allowed to adhere for 2 h at 37° C., followed by addition of 500 μL chondrogenic medium supplemented. […] After 14 days, induction of hypertrophic differentiation and mineralization was induced by the mineralization medium made of α-MEM medium (Gibco) containing 1% AB, 5% FBS, 5 μg/ml human transferrin, 1× of ITS premix, 50 μg/ml ascorbic acid-2-phosphate (AA) (Sigma) and 10 mM β-glycerophosphate (BGP) (Sigma). […] Micromasses were collected at time points 1, 7, 14 21 and 28 days. Each time point was processed in three technical replicates. The medium was changed every other day. […] The genes of interest were articular chondrocyte markers (aggrecan, type 2 collagen (col2a1)), YAP/TAZ target genes (ctgf, ankrd) and pro-catabolic enzymes involved in the pathophysiology of OA (mmp3, mmp13).
Total RNA was isolated using the Nucleospin RNA II kit (Macherey-Nagel) and reverse-transcribed using the MMLV reverse transcriptase (Thermo Fisher Scientific) following the manufacturers' instructions. The iTaq SYBR green qPCR master mix (BioRad) was used to assess the mRNA expression of target genes of interest. Primer sequences can be provided upon request. The following PCR conditions were used: 1 minute at 95° C., 40 cycles of 15 sec of denaturation at 95° C., followed by 1 minute of annealing-elongation at 60° C. Melting curve analysis was performed to determine the amplification of the specific product. Results were expressed using the comparative threshold method and were normalized to housekeeping gene PPIA (Peptidylprolyl Isomerase A) mRNA level for ATDC5 cells and MACs, or normalized to housekeeping gene S29 (ribosomal protein S29) mRNA level for MC3T3-E1 cells. The Via7 real-time PCR system (Thermo Fisher Scientific) was used for qRT-PCR measurements.
ATDC5 cells were cultured as micromasses and differentiated during 14 days using ITS as mentioned previously. […] RNA was isolated and qPCR were performed for different target genes, i.e. type II collagen and aggrecan (articular chondrocyte extracellular matrix), CTGF (YAP/TAZ target genes, indicators of the pathway activity) and MMP3 (cartilage degrading enzyme increased during osteoarthritis) (FIG. 15). Alcian blue staining was performed on the micromasses cultures, and biochemical quantitation was performed as previously described (FIG. 16).
ATDC5 cells were cultured as micromasses and differentiated during 14 days using ITS as mentioned previously. […] RNA was isolated and qPCR were performed for different target genes, i.e. type II collagen and aggrecan (articular chondrocyte extracellular matrix), CTGF (YAP/TAZ target gene, indicator of the pathway activity) and MMP3 (cartilage degrading enzyme increased during osteoarthritis) (FIG. 17). Alcian blue staining was performed on the micromasses cultures, and biochemical quantitation was performed as previously described (FIG. 18).

alkaline phosphatase = details: 300 ng/ml, 1000 ng/ml; day 1 and day 21; vs CTL
Experimental: MC3T3-E1 cells were differentiated during 21 days as mentioned previously. […] Treated cells were compared to cells without any peptide stimulation (CTL).
We also assessed the specific alkaline phosphatase activity (μmol de para-nitrophenol/min/mg of protein). To that goal, we lysed the cells using 300 μL of a buffer containing 0.2 M Tris-Base, 1.6 mM MgCl2 pH 8.1 and 1% Triton X-100. Samples were then placed into tubes and put on ice for 30 min. During this time, we alternated periods of 30 sec vortex and 5 min on ice. Then, samples were sonicated, and centrifugated for 15 min at 13 000 g, 4° C. Supernatant was collected, and total protein concentration was evaluated using bicinchoninic acid assay.
Alkaline phosphatase activity was measured by placing the harvested supernatants in para-nitrophenyl phosphate (pNPP) solution. The alkaline phosphatase will cleave this substrate and generate para-nitrophenol (pNP).
A solution of 4 mg/mL of pNPP is prepared in buffer A (0.1 M glycine pH 10.5, 0.11% (m/v) Zinc acetate and 0.011% magnesium chloride (m/v)). […]
Absorbance is read at 410 nm on a Varioskan Flash apparatus. Alkaline phosphatase activity is calculated based on the standard curve (equation A410=a×quantity(ρNP)+b) with the following formula: activity=((A(410 nm)−b)×reaction volume)/(a×sample volume×reaction time)

Wnt/β-catenin pathway [3] = details: PEP16 at 300 or 1000 ng/mL; day 7, 14, 21; during osteogenesis
Experimental: Cells were maintained in a humidified atmosphere of 5% CO2 at 37° C.

MMP13 = MMP13 enzymatic activity in culture supernatants of human articular cartilage explants (osteoarthritis); type: cell-based; details: PEP16 at 300 ng/mL for 7 days (3 stimulations); explants from 3 patients with end-stage osteoarthritis
Experimental: Explants of human articular cartilage were obtained from total knee replacement surgeries, from the orthopedic department from the CHRU of Nancy (Pr. Didier Mainard). Samples were washed three times in 1% AB/PBS and incubated for 24 h in growth medium (DMEM-F12, containing 1% AB (Gibco), 10% FBS (Gibco) and 5% L-glutamine (Thermoscientific). Explants were then stimulated with PEP16 at the concentration of 300 ng/ml during 7 days. The culture supernatants were then harvested in order to perform MMP13 enzymatic activity assay.
The MMP13 enzymatic activity was assessed using the MMP13 fluorogenic substrate (Merck Millipore). Briefly, culture supernatants harvested at the end of the different experiments were mixed with 1.5 mM of 4-aminophenylmercuric acetate, and incubated for 1 h at 37° C., in order to turn every pro-MMPs into active MMPs. Then, the fluorogenic substrate was added, and the mixture was incubated for 3 h at 37° C. Fluorescence was evaluated using the following parameters, excitation 325 nm and emission 393 nm, on the Varioskan Flash device (Thermo Fisher Scientific). Recombinant human MMP13 was used as a positive control (Merck Millipore). Negative control consisted in growth medium.

ATDC5 micromasses [4] = test: Glycosaminoglycan/proteoglycan quantification (Alcian blue staining) in ATDC5 micromasses; type: cell-based, mouse
Experimental: as §1
Micromasses were washed with PBS and fixed with 95% ice-cold ethanol for 30 min at 4° C. for staining. After washing with distilled water, micromasses were stained with Alcian Blue (0.1% Alcian Blue 8GX, (Sigma)), washed three times with distilled water to remove unbound staining and air-dried.

[5] = 300 ng/ml, differentiated 14 days with ITS, D14 vs CTL
[6] = PEP16 at 30, 100, 300 ng/mL, day 1, 7, 14, 21, 28, vs non-treated control, normalized with ppia

Question: How did the “Wnt/β-catenin pathway activation (active protein form over total protein form)” value (Wnt/β-catenin pathway [1]) turn out when “DRLGKKVKRWDMKLRH (PEP16) [peptide derived from the netrin-like domain of the FRZB protein]” was run?
Answer: reduced in the activation of the Wnt/β-catenin pathway

Question: What about the MMP3 expression (ATDC5 micromasses [2]; [5]) of the same sequence?
Answer: significant decrease

Question: What about the “YAP/TAZ target genes (CTGF) expression” value (ATDC5 micromasses [2]; [5]) of the same sequence?
Answer: significant decrease

Question: What about the “articular chondrocyte extracellular matrix genes (type II collagen and aggrecan) expression” value (ATDC5 micromasses [2]; [5]) of the same sequence?
Answer: significant increase

Question: And the “relative expression level of aggrecan” value (ATDC5 micromasses [2]; [6])?
Answer: significantly enhanced the induction of the expression

Question: And the “relative expression level of col2a1 (type 2 collagen)” value (ATDC5 micromasses [2]; [6])?
Answer: significantly enhanced the induction of the expression

Question: And the “relative expression level of ctgf (Hippo/YAP/TAZ target gene)” value (ATDC5 micromasses [2]; [6])?
Answer: efficiently reduced the expression

Question: And the “relative expression level of mmp3” value (ATDC5 micromasses [2]; [6])?
Answer: efficiently reduced the expression

Question: What about the “relative expression level of mmp13” value (ATDC5 micromasses [2]; [6]) of the same sequence?
Answer: efficiently reduced the expression

Question: What about the “specific alkaline phosphatase activity” value (alkaline phosphatase) of the same sequence?
Answer: tended to increase the alkaline phosphatase activity

Question: What about the Wnt/β-catenin pathway activation (Wnt/β-catenin pathway [3]) of the same sequence?
Answer: reduced in the activation

Question: What about the “MMP13 enzymatic activity in culture supernatant” value (MMP13) of the same sequence?
Answer: capable of reducing the enzymatic activity

Question: What about the “proteoglycans deposition in the extracellular matrix (Alcian blue, absorbance 650 nm)” value (ATDC5 micromasses [4]; 300 ng/ml, 14 days, vs control cells) of the same sequence?
Answer: significantly increase the proteoglycans deposition

Question: And the “glycosaminoglycans quantification (accumulation in the extracellular matrix)” value (ATDC5 micromasses [4]; PEP16 at 30, 100, 300 ng/mL, Alcian blue at day 28, blue pixels and biochemical quantification)?
Answer: significantly increased the accumulation of glycosaminoglycans
